Assay results from patent US20240261318A1, “ANTI-AGING COSMETIC COMPOSITION” (LG HOUSEHOLD & HEALTH CARE LTD., priority 2021, published 2024).

Test system: FGF10
Experiment: Analysis of mRNA expression of FGF10 in human dermal fibroblasts (qPCR)
Type: cell-based
Settings: for Expression level (% relative to control): FGF10 mRNA, human dermal fibroblasts, 48 hours; for mRNA expression of FGF 10: human fibroblasts treated with the single substance, result in words
Method: Human dermal fibroblasts (neonatal) were purchased from Lonza and then cultured in a carbon dioxide incubator at 37° C. and 5% carbon dioxide. In this case, as a medium for culturing, a medium containing Dulbecco's modified eagle medium (DMEM; Thermo Fisher Scientific) with 10% fetal bovine serum (FBS) and 1% antibiotics (penicillin/streptomycin) was used. Afterward, 20000 cells were seeded in a 6-well plate, and 24 hours later, the DMEM culture medium was treated with each sample having compositions shown in Tables 1 and 2 and cultured again for another 48 hours. As a control, a DMEM culture medium not including any other components was used.

Nc1ncnc2c1ncn2[C@@H]1O[C@H](CO)[C@@H](O)[C@H]1O [Adenosine, reference compound]
Expression level (% relative to control) (Table 1, sample at 8 ppm): 88% | Expression level (% relative to control) (Table 2, sample at 8 ppm): 88% | mRNA expression of FGF 10: no effect on increasing the expression of FGF 10

C=C1CC[C@@H]2[C@](C)(CO)[C@H](O)CC[C@@]2(C)[C@@H]1C/C=C1/C(=O)OC[C@H]1O [Andrographolide, andrographolide]
Expression level (% relative to control) (Table 1, sample at 0.2 ppm): 141% | mRNA expression of FGF 10: promoted

O=c1c(O)c(-c2ccc(O)c(O)c2)oc2cc(O)cc(O)c12 [Quercetin, quercetin]
Expression level (% relative to control) (Table 2, sample at 0.2 ppm): 63% | mRNA expression of FGF 10: promoted

Nc1ncnc2c1ncn2[C@@H]1O[C@H](CO)C[C@H]1O [Cordycepin, cordycepin]
Expression level (% relative to control) (Table 1, sample at 8 ppm): 148% | Expression level (% relative to control) (Table 2, sample at 0.2 ppm): 102% | mRNA expression of FGF 10: promoted
